In general, EC50 refers to the midpoint of the concentration-response curve.

The results in this text go back to patent publication US10968232B2 (Merck Sharp & Dohme Corp., priority 2016, dated 2021).

Each structure is given as a SMILES string.

The target of the experiment is T1, human GPR40 (Homo sapiens, UniProt O14842).
T1 construct: expressed in transfected cells
T1 sequence (O14842 whole entry): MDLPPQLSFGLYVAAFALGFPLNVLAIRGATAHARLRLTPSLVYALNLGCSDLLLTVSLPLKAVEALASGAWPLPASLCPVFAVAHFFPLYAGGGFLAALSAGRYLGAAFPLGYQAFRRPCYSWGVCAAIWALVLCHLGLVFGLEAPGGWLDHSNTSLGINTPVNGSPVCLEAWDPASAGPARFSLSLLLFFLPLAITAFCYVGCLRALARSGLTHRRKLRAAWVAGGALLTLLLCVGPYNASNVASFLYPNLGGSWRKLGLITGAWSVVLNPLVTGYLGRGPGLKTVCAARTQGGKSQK
As to the kind of experiment: Inositol Phosphate Turnover (IP1) Assay. The format is cell-based. As to conditions: HEK cells stably expressing human GPR40; CisBio IP-One kit; 60 minutes at 37 degrees; read-out: Human IP1 EC50. The essentials:
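HEK cells stably expressing GPR40, plated 16 h, then exposed to compound in stimulation buffer for 60 min at 37 °C. IP1 accumulation read by HTRF IP-One detection after 60 min at RT.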
With `CC(c1cc(C(F)(F)F)cc(C(F)(F)F)c1)N1CCC2(CCc3ccc([C@H](C4CC4)[C@H](C)C(=O)O)cc3O2)CC1` (stereo partly drawn) [Example 54, (2S,3R)-3-(1′-(1-(3,5-bis(trifluoromethyl)phenyl)ethyl)spiro[chroman-2,4′-piperidin]-7-yl)-3-cyclopropyl-2-methylpropanoic Acid], the EC50 was 6.47 nM.

As to `CC(c1cc(C(F)(F)F)ccc1C1CC1)N1CCC2(CCc3ccc([C@H](C4CC4)[C@H](C)C(=O)O)cc3O2)CC1` (single isomer, unassigned) [Example 15, sodium (2S,3R)-3-cyclo-propyl-3-(1′-((S or R)-1-(2-cyclopropyl-5-(trifluoromethyl)phenyl)ethyl)spiro[chroman-2,4′-piperidin]-7-yl)-2-methylpropanoate], the EC50 came to 5.9 nM.

Regarding `COc1ncc(C(F)(F)F)cc1C(C)N1CCC2(CCc3ccc([C@H](C4CC4)[C@H](C)C(=O)O)cc3O2)CC1` (single isomer, unassigned) [Example 102, (2S,3R)-3-cyclopropyl-3-(1′-((R or S)-1-(2-methoxy-5-(trifluoromethyl)pyridin-3-yl)ethyl)spiro-[chroman-2,4′-piperidin]-7-yl)-2-methylpropanoic Acid], the half-maximal effective concentration (EC50) came to 995 nM.

`CCC(c1cc(C(F)(F)F)ccc1C(F)(F)F)N1CCC2(CCc3ccc([C@H](C4CC4)[C@H](C)C(=O)O)cc3O2)CC1` (stereo in doubt) [Example 9, (2S,3R)-3-(1′-((S)-1-(2,5-bis(trifluoromethyl)phenyl)propyl)spiro[chroman-2,4′-piperidin]-7-yl)-3-cyclopropyl-2-methylpropanoic Acid]: the EC50 was 0.73 nM.

For `C[C@H](C(=O)O)[C@H](c1ccc2c(c1)OC1(CC2)CCN(Cc2cc(Cl)cc3c2OC(C)(C)C3)CC1)C1CC1` [Example 61, sodium (2S3R)-3-(1′-((5-chloro-2,2-dimethyl-2,3-dihydrobenzofuran-7-yl)methyl)-spiro[chroman-2,4′-piperidin]-7-yl)-3-cyclopropyl-2-methylpropanoate], the EC50 is 118 nM.

As to `CC(c1cc(Cl)cc(Cl)c1OC(F)F)N1CCC2(CCc3ccc([C@H](C4CC4)[C@H](C)C(=O)O)cc3O2)CC1` (single isomer, unassigned) [Example 79, (2S,3R)-3-cyclopropyl-3-(1′-((R or S)-1-(3,5-dichloro-2-(difluoromethoxy)phenyl)-ethyl)spiro[chroman-2,4′-piperidin]-7-yl)-2-methylpropanoic Acid], the EC50 worked out at 2.44 nM.

As to `C[C@H](C(=O)O)[C@H](c1ccc2c(c1)OC1(CC2)CCN(Cc2nc(C(F)(F)F)ccc2Cl)CC1)C1CC1` [Example 32, (2S,3R)-3-(1′-((3-chloro-6-(trifluoromethyl)-pyridin-2-yl)methyl)-spiro-[chroman-2,4′-piperidin]-7-yl)-3-cyclopropyl-2-methylpropanoic acid], the EC50 amounted to 177 nM.

`C[C@H](C(=O)O)[C@H](c1ccc2c(c1)OC1(CC2)CCN(c2cncc(C(F)(F)F)c2)CC1)C1CC1` [Example 39, (2S,3R)-3-cyclopropyl-2-methyl-3-(1′-(5-(trifluoromethyl)pyridin-3-yl)Spiro [chroman-2,4′-piperidin]-7-yl)propanoic Acid]: the EC50 stood at 566 nM.

As for `C[C@H](C(=O)O)[C@H](c1ccc2c(c1)OC1(CC2)CC2(CN([C@@H](C)c3cc(C(F)(F)F)ccc3C(F)(F)F)C2)C1)C1CC1` [Example 127, (2S,3R)-3-cyclopropyl-3-(2,2-(S)-2-(1-(2,5-bis(trifluoromethyl)phen-yl)ethyl)-2-azaspiro[3.3]-heptane-chroman-7-yl)-2-methylpropanoic acid], the EC50 was 0.46 nM.

In the case of `C[C@H](C(=O)O)[C@H](c1ccc2c(c1)OC1(CC2)CCN([C@@H](C)c2cc(F)ccc2OC(F)(F)F)CC1)C1CC1` [Example 132, Sodium (2S,3R)-3-cyclopropyl-3-(1′-((S)-1-(5-fluoro-2-(trifluoromethoxy)phenyl)ethyl)spiro[chromane-2,4′-piperidin]-7-yl)-2-methylpropanoate], the EC50 was 11.2 nM.

Turning to `COc1cc(C(C)N2CCC3(CCc4ccc([C@H](C5CC5)[C@H](C)C(=O)O)cc4O3)CC2)c(C(F)(F)F)cn1` (single isomer, unassigned) [Example 107, sodium (2S,3R)-3-cyclo-propyl-3-(1′-((S or R)-1-(2-methoxy-5-(trifluoro-methyl)pyridin-4-yl)ethyl)spiro[chroman-2,4′-piperidin]-7-yl)-2-methylpropanoate], the EC50 was found to be 2.12 nM.

Take `Cc1cscc1-c1ccc(OC(F)(F)F)c(C(C)N2CCC3(CCc4ccc([C@H](C5CC5)[C@H](C)C(=O)O)cc4O3)CC2)c1` (stereo partly shown) [Example 119]: the EC50 is 15 nM.

For the compound `CC(c1cc(C2CC2)ccc1C(F)(F)F)N1CCC2(CCc3ccc([C@H](C4CC4)[C@H](C)C(=O)O)cc3O2)CC1` (single isomer, unassigned) [Example 57, (2S,3R)-3-cyclopropyl-3-(1′-((R or S)-1-(5-cyclopropyl-2-(trifluoromethyl)phenyl)-ethyl)-spiro[chroman-2,4′-piperidin]-7-yl)-2-methylpropanoic Acid], the EC50 came out at 1.4 nM.

Turning to `C[C@H](C(=O)O)[C@H](c1ccc2c(c1)OC1(CC2)[C@@H]2CC[C@H]1CN([C@H](C)c1cc(F)ccc1C(F)(F)F)C2)C1CC1` (stereo partly drawn) [Example 84, (2S,3R)-3-cyclopropyl-3-((1R,5S)-3-((R)-1-(5-fluoro-2-(trifluoro-methyl)phenyl)ethyl)-3-azaspiro[bicyclo[3.2.1]oc-tane-8,2′-chroman]-7′-yl)-2-methylpropanoic acid], the EC50 came out at 28.5 nM.

With `CC(c1cc(F)cc(F)c1Cl)N1CCC2(CCc3ccc([C@H](C4CC4)[C@H](C)C(=O)O)cc3O2)CC1` (single isomer, unassigned) [Example 19], the EC50 was found to be 37.6 nM.

For `C[C@H](C(=O)O)[C@H](c1ccc2c(c1)OC1(CCCN([C@H](C)c3cc(C(F)(F)F)ccc3C(F)(F)F)CC1)CC2)C1CC1` (single isomer, unassigned) [Example 50, (2S,3R)-3-((S or R)-1-((R)-1-(2,5-bis (trifluoromethyl)phenyl)ethyl)spiro[azepane-4,2′-chroman]-7′-yl)-3-cyclopropyl-2-methylpropanoic acid], the EC50 came out at 1.39 nM.

In the case of `COc1cc(C(C)N2CCC3(CCc4ccc([C@H](C5CC5)[C@H](C)C(=O)O)cc4O3)CC2)c(C(F)(F)F)cn1` (single isomer, unassigned) [Example 106, sodium (2S,3R)-3-cyclo-propyl-3-(1′-((R or S)-1-(2-methoxy-5-(trifluoro-methyl)pyridin-4-yl)ethyl)spiro[chroman-2,4′-piperidin]-7-yl)-2-methylpropanoate], the EC50 is 15.6 nM.

For `CC(c1nc(C(F)(F)F)ccc1Cl)N1CCC2(CCc3ccc([C@H](C4CC4)[C@H](C)C(=O)O)cc3O2)CC1` (single isomer, unassigned) [Example 30], the EC50 was 50.4 nM.

Consider `C[C@H](NC1CC2(CCc3ccc([C@H](C4CC4)[C@H](C)C(=O)O)cc3O2)C1)c1cc(C(F)(F)F)ccc1C(F)(F)F` (single isomer, unassigned) [Example 94], for which the EC50 was 2.62 nM.
